Experimental data: PMC10342533, “Novel Tetrazole Derivatives Targeting Tubulin Endowed with Antiproliferative Activity against Glioblastoma Cells” (International Journal of Molecular Sciences, 2023)

Key:
HeLa cells = assay: Cell cycle analysis by flow cytometry (PI), HeLa; format: cell-based, human; conditions: 100 nM
Experimental: To assess how tubulin polymerization inhibition and the effects on the microtubule network affect the cell cycle, flow cytometry experiments were performed on HeLa, MCF7, and U87 MG cells 24, 48, and 72 h after treatments with compounds 10, 12, and 14 at 100 nM using propidium iodide (PI) for DNA staining and untreated cells as the negative control.
HeLa, MCF7, or U87 MG cells were seeded in 6-well plates (8·10^4 cells/mL, 2 mL/well) and incubated in complete DMEM Medium (see above) at 37 °C and 5% CO2 atmosphere for 24 h. Then, the cells were treated with selected compounds (10, 12, or 14) at 100 nM, and untreated cells were used as negative controls. Cells were collected 24, 48, or 72 h following treatment and fixed overnight in ethanol/PBS (7:3) at 4 °C. After two washes with PBS, cells were suspended in PBS and incubated in darkness overnight with 0.2 mg/mL RNase A (Sigma-Aldrich, St. Louis, MO, USA), 50 µg/mL propidium iodide (Sigma-Aldrich, St. Louis, MO, USA), and Triton 10x at room temperature. A BD Accuri™ C6 Plus Flow Cytometer (BD Biosciences, Franklin Lakes, NJ, USA) cytometer was used to analyze the samples, and BD Accuri™ C6 Software (version 1.0.264.21) was used for data analysis.

[1] = test system: HT-29 (colon adenocarcinoma); assay: Cell growth inhibition, MTT assay, HT-29, without or with verapamil; format: cell-based, human
Experimental: The ability of the synthesized compounds to inhibit the cell proliferation of human cancer cell lines was assayed by measuring cell viability through the use of the MTT method 72 h after treatment. For this purpose, representative cell lines of the most frequent kinds of cancer were selected, including the following: HeLa (cervix epithelioid carcinoma), MCF7 (breast adenocarcinoma), U87 MG (glioblastoma), T98G (temozolomide resistant glioblastoma), HepG2 (hepatocellular carcinoma), HCT8 (colorectal carcinoma), and HT-29 (colon adenocarcinoma).
Multidrug resistance (MDR) proteins, especially P-glycoprotein (P-gp), are often involved in resistance mechanisms affecting tubulin-binding drugs that are frequently related to the failure of cancer therapies. […] These pumps are also part of the blood–brain barrier.
The cell lines were obtained from ATTC (Manassas, VA, USA). […] The cells were periodically tested for Mycoplasma infection by using a MycoAlert kit (Lonza, Norwest, Australia), and only Mycoplasma-free cells were used in the experiments.
Then, every compound was added (10 µL/well) to a final concentration of 10 µM. Untreated cells were used as negative controls. The antiproliferative activity of compounds was measured 72 h after drug exposure through the MTT assay. […] For this purpose, compounds were used at different concentrations, ranging from 10^−10 to 10^−2 M. Measurements were performed in triplicate, and each experiment was repeated three times. The IC50 values were determined using Origin software (version 9.6, OriginLab, Washington, DC, USA).

[2] = Homo sapiens, HT-29, 72 h after drug exposure
[3] = Homo sapiens, HT-29, mean ± SD, Table S1
[4] = mean ± SD, Table S1, in the presence of verapamil (10 µM)

| Structure (SMILES) | G0/G1 population (HeLa cells; 24 h) [% Cells] | G2/M population (HeLa cells; 24 h) [% Cells] | S population (HeLa cells; 24 h) [% Cells] | SubG0/G1 population (HeLa cells; 24 h) [% Cells] | G0/G1 population (HeLa cells; 48 h) [% Cells] | G2/M population (HeLa cells; 48 h) [% Cells] | S population (HeLa cells; 48 h) [% Cells] | SubG0/G1 population (HeLa cells; 48 h) [% Cells] | G0/G1 population (HeLa cells; 72 h) [% Cells] | G2/M population (HeLa cells; 72 h) [% Cells] | S population (HeLa cells; 72 h) [% Cells] | SubG0/G1 population (HeLa cells; 72 h) [% Cells] | IC50 [1, 2] [µM] | IC50 [1, 3] [µM] | IC50 [1, 4] [µM] |
| --- | --- | --- | --- | --- | --- | --- | --- | --- | --- | --- | --- | --- | --- | --- | --- |
| CSc1cc(-c2nnnn2-c2ccc3c(ccn3C)c2)cc(Cl)n1 [Compound 10, 5-(5-(2-chloro-6-(methylsulfanyl)pyridin-4-yl)-1H-tetrazol-1-yl)-1-methyl-1H-indole] | 18.1 | 59.5 | 3.9 | 18.6 | 16.7 | 45.9 | 7.6 | 29.1 | 14.4 | 35.2 | 4.9 | 45.6 | 0.059 | 0.0594 ± 0.0005 | 0.0614 ± 0.0004 |
| Cn1cc(C=O)c2cc(-n3nnnc3-c3cc(Cl)nc(Cl)c3)ccc21 [Compound 12, 5-(5-(2,6-dichloropyridin-4-yl)-1H-tetrazol-1-yl)-1-methyl-1H-indole-3-carbaldehyde] | 20.0 | 57.8 | 4.6 | 17.8 | 18.2 | 40.8 | 7.8 | 32.5 | 15.3 | 34.0 | 5.6 | 45.4 | 0.051 | 0.0513 ± 0.0003 | 0.0565 ± 0.0005 |
| CSc1cc(-c2nnnn2-c2ccc3c(c2)c(C=O)cn3C)cc(Cl)n1 [Compound 14, 5-(5-(2-chloro-6-(methylsulfanyl)pyridin-4-yl)-1H-tetrazol-1-yl)-1-methyl-1H-indole-3-carbaldehyde] | 16.6 | 47.0 | 3.7 | 32.7 | 17.1 | 34.1 | 7.0 | 41.3 | 9.6 | 25.4 | 8.1 | 57.4 | 0.031 | 0.0311 ± 0.0003 | 0.0331 ± 0.0004 |
